Assay results published in patent EP4745137A1 (Gluetacs Therapeutics (Shanghai) Co., Ltd., priority 2023, dated 2025).

Legend:
[1] = biological target: T1, WEE1 (Homo sapiens, UniProt P30291+Q96SW2); test: Western-blot assay of substrate protein degradation in hPBMCs, WEE1; type: cell-based; settings: 24 hours of compound treatment
T1 construct: endogenous in cells; host or cells: hPBMCs (Milecell Biotechnologies)

[2] = biological target: T2, IKZF1 (Homo sapiens, UniProt Q13422+Q96SW2); test: Western-blot assay of substrate protein degradation in hPBMCs, IKZF1; type: cell-based; settings: 24 hours of compound treatment
T2 construct: endogenous in cells; host or cells: hPBMCs (Milecell Biotechnologies)

[3] = biological target: T3, IKZF3 (Homo sapiens, UniProt Q96SW2+Q9UKT9); test: Western-blot assay of substrate protein degradation in hPBMCs, IKZF3; type: cell-based; settings: 24 hours of compound treatment
T3 construct: endogenous in cells; host or cells: hPBMCs (Milecell Biotechnologies)

[4] = biological target: T4, CK1α (Homo sapiens, UniProt P48729+Q96SW2); test: Western-blot assay of substrate protein degradation in hPBMCs, CK1α; type: cell-based; settings: 24 hours of compound treatment
T4 construct: endogenous in cells; host or cells: hPBMCs (Milecell Biotechnologies)

[5] = biological target: T5, human Cereblon WT GST-tagged protein (Homo sapiens, UniProt Q96SW2); test: CRBN-binding affinity by HTRF (CEREBLON BINDING kit); settings: HTRF inhibitory activity, CEREBLON BINDING kit; read-out: HTRF IC50
T5 construct: purchased CISBIO 64BDCRBNPEH

[6] = biological target: T6, GSPT1 (Homo sapiens, UniProt P15170+Q96SW2); test: Western-blot assay of substrate protein degradation in hPBMCs, GSPT1; type: cell-based; settings: 24 hours of compound treatment
T6 construct: endogenous in cells; host or cells: hPBMCs (Milecell Biotechnologies)

[7] = biological target: T7, IKZF2 (Homo sapiens, UniProt Q96SW2+Q9UKS7); test: Western-blot assay of substrate protein degradation in hPBMCs, IKZF2; type: cell-based; settings: 24 hours of compound treatment
T7 construct: endogenous in cells; host or cells: hPBMCs (Milecell Biotechnologies)

[8] = compounds tested at 50 nM and 500 nM (concentration of the table not stated)
[9] = 50 nM and 500 nM tested (concentration behind the class not stated)

T2 sequence (Q13422 whole entry): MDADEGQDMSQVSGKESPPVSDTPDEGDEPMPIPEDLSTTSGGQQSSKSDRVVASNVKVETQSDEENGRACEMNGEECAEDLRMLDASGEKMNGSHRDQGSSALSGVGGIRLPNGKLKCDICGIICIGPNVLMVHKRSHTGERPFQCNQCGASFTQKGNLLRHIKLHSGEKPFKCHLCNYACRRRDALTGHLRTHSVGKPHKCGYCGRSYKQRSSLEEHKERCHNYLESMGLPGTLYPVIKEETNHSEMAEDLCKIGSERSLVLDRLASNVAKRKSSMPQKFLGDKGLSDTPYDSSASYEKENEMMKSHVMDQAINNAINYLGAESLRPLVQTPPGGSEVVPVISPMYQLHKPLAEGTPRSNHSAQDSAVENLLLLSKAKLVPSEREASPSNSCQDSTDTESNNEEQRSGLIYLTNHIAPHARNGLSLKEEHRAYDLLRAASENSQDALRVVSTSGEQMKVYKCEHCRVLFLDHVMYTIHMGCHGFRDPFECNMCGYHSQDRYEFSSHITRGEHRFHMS
T2 sequence (Q96SW2 whole entry): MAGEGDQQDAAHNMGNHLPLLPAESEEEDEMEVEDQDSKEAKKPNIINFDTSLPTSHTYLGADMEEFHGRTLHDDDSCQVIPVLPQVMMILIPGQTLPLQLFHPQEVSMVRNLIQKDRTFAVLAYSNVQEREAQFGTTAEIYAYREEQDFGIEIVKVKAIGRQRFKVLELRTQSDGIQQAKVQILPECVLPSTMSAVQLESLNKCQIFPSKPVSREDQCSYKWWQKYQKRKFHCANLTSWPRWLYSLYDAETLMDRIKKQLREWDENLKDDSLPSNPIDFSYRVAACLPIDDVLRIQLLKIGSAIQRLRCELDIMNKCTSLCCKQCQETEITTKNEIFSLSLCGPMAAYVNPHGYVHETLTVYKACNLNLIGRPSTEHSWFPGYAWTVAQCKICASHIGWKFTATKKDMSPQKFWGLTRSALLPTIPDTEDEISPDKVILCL
T2 sequence (Q16531 whole entry partner): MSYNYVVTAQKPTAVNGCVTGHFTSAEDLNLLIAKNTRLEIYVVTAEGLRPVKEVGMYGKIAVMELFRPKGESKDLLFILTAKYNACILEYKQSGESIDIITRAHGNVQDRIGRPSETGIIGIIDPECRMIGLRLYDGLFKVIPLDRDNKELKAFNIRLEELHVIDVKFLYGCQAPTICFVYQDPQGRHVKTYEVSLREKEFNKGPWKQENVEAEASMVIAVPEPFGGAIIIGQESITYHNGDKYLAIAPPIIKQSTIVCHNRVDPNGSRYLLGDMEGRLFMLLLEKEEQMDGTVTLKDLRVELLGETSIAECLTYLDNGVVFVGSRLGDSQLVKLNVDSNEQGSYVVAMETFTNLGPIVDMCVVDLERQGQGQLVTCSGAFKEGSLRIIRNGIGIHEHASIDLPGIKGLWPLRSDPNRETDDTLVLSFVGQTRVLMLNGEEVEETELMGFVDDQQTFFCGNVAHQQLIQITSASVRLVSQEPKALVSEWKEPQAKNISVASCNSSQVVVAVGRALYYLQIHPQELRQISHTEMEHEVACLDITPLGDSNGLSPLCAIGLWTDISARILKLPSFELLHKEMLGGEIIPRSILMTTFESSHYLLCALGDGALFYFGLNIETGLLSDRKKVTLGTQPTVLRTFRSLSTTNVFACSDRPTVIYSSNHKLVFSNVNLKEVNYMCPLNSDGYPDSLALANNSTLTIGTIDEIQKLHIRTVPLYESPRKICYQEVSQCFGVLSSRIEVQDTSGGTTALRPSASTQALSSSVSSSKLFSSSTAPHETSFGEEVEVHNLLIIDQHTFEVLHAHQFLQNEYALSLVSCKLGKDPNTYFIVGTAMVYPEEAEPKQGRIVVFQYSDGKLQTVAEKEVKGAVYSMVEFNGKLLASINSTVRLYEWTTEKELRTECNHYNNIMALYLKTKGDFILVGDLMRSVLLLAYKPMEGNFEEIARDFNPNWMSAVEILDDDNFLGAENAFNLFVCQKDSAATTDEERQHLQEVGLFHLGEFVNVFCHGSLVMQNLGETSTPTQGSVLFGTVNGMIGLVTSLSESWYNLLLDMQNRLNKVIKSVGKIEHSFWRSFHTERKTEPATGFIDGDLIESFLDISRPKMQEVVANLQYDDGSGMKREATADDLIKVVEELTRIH
T7 sequence (Q9UKS7 whole entry): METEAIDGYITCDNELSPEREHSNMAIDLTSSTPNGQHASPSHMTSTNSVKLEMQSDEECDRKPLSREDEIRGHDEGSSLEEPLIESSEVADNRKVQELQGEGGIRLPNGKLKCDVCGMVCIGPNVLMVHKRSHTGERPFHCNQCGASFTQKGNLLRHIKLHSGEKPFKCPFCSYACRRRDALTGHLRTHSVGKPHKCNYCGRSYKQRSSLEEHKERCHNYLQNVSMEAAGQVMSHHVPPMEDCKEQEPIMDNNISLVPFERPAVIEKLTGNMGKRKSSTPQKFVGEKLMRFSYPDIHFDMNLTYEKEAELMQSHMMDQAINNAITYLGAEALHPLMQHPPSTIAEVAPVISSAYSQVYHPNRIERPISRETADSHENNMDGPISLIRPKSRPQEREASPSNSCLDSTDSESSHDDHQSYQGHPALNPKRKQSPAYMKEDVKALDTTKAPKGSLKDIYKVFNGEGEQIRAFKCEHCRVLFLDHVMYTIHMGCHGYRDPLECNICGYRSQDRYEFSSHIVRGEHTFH
T7 sequence (Q96SW2 whole entry): as the sequence (Q96SW2 whole entry) above
T7 sequence (Q16531 whole entry partner): as the sequence (Q16531 whole entry partner) above
T1 sequence (P30291 whole entry): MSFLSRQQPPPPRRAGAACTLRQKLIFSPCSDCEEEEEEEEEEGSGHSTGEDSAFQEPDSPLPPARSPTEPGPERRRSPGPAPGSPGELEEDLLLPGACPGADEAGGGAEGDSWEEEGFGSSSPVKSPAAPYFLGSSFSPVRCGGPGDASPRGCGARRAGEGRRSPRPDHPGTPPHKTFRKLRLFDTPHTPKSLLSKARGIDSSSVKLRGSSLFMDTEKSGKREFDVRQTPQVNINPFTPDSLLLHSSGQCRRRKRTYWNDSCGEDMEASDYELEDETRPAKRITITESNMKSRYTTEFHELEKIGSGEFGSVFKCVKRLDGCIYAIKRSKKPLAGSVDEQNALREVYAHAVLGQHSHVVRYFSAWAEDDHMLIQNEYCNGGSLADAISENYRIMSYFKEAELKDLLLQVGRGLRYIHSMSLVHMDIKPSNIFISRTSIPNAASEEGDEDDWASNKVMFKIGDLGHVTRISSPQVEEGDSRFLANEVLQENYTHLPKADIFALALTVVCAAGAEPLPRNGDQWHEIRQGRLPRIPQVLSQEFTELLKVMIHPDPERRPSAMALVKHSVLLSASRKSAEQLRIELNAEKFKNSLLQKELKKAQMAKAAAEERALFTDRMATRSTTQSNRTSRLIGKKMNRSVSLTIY
T1 sequence (Q96SW2 whole entry): as the sequence (Q96SW2 whole entry) above
T1 sequence (Q16531 whole entry partner): as the sequence (Q16531 whole entry partner) above
T4 sequence (P48729 whole entry): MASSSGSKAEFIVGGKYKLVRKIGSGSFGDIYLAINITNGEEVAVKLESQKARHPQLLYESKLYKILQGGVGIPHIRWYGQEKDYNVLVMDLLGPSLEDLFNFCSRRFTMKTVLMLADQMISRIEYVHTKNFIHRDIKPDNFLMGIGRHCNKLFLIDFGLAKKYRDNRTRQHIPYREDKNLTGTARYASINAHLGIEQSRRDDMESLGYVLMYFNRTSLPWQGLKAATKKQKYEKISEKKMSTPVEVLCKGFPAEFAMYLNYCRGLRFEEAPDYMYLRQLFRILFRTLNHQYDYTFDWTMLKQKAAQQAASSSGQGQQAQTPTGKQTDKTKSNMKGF
T4 sequence (Q96SW2 whole entry): as the sequence (Q96SW2 whole entry) above
T4 sequence (Q16531 whole entry partner): as the sequence (Q16531 whole entry partner) above
T5 sequence (Q96SW2 whole entry): as the sequence (Q96SW2 whole entry) above
T6 sequence (P15170 whole entry): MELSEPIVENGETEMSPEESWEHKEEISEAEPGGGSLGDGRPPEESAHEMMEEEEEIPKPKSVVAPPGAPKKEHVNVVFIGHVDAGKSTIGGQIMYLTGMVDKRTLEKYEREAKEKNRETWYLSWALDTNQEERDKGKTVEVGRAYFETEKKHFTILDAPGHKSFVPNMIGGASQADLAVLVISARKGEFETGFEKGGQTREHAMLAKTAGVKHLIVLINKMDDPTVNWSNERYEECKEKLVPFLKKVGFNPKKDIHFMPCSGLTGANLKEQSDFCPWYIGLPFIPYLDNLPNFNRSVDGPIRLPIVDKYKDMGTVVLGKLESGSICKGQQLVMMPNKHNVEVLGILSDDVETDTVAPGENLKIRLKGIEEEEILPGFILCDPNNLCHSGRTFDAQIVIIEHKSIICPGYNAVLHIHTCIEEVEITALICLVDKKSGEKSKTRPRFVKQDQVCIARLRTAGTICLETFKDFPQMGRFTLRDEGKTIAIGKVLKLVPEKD
T6 sequence (Q96SW2 whole entry): as the sequence (Q96SW2 whole entry) above
T6 sequence (Q16531 whole entry partner): as the sequence (Q16531 whole entry partner) above

Compound | Weel substrate protein remaining % [1, 8] | IKZF 1 substrate protein remaining % [2, 8] | IKZF3 substrate protein remaining % [3, 8] | CK1a substrate protein remaining % [4, 8] | IC50 [5] [nM] | GSPT1 substrate protein remaining % [6, 8] | IKZF2 substrate protein remaining % [7, 8] | Weel substrate protein remaining % [1, 9] | IKZF 1 substrate protein remaining % [2, 9] | IKZF3 substrate protein remaining % [3, 9] | CK1a substrate protein remaining % [4, 9] | GSPT1 substrate protein remaining % [6, 9] | IKZF2 substrate protein remaining % [7, 9]
O=C1CCC(N2Cc3cc(CN4CCC(c5ncnc6scc(-c7ccccc7)c56)CC4)ccc3C2=O)C(=O)N1 (centres unmarked) [GT-04995, 3-(1-oxo-5-((4-(5-phenylthieno[2,3-d]pyrimidin-4-yl)piperidin-1-yl)methyl)isoindolin-2-yl)piperidine-2,6-dione] | A (0% ≤ substrate protein remaining % ≤ 80%) | A (0% ≤ substrate protein remaining % ≤ 80%) | A (0% ≤ substrate protein remaining % ≤ 80%) | B (80%< substrate protein remaining %≤ 100%) | < 500 | B (80%< substrate protein remaining %≤ 100%) | A (0% ≤ substrate protein remaining % ≤ 80%) | – | – | – | – | – | –
O=C1CCC(N2Cc3cc(CN4CCC(c5ncnc6sccc56)CC4)ccc3C2=O)C(=O)N1 (centres unmarked) [GT-04702, 3-(1-oxo-5-((4-(thieno[2,3-d]pyrimidin-4-yl)piperidin-1-yl)methyl)isoindolin-2-yl)piperidine-2,6-dione] | B (80%< substrate protein remaining %≤ 100%) | A (0% ≤ substrate protein remaining % ≤ 80%) | A (0% ≤ substrate protein remaining % ≤ 80%) | B (80%< substrate protein remaining %≤ 100%) | 500 to 1000 | A (0% ≤ substrate protein remaining % ≤ 80%) | A (0% ≤ substrate protein remaining % ≤ 80%) | – | – | – | – | – | –
O=C1CCC(N2Cc3cc(CN4CC5CCC(C4)N5c4cccc(Cl)c4Cl)ccc3C2=O)C(=O)N1 (centres unmarked) [GT-04899, 3-(5-((8-(2,3-dichlorophenyl)-3,8-diazabicyclo[3.2.1]octan-3-yl)methyl)-1-oxoisoindolin-2-yl)piperidine-2,6-dione] | B (80%< substrate protein remaining %≤ 100%) | A (0% ≤ substrate protein remaining % ≤ 80%) | B (80%< substrate protein remaining %≤ 100%) | B (80%< substrate protein remaining %≤ 100%) | 500 to 1000 | B (80%< substrate protein remaining %≤ 100%) | B (80%< substrate protein remaining %≤ 100%) | – | – | – | – | – | –
O=C1CCC(N2C(=O)c3ccc(CN4CC=C(c5ncnc6sccc56)CC4)cc3C2=O)C(=O)N1 (centres unmarked) [GT-06653, 2-(2,6-dioxopiperidin-3-yl)-5-((4-(thieno[2,3-d]pyrimidin-4-yl)-3,6-dihydropyridin-1(2H)-yl)methyl)isoindoline-1,3-dione] | – | – | – | – | 500 to 1000 | – | – | A (0% ≤ substrate protein remaining % ≤ 80%) | A (0% ≤ substrate protein remaining % ≤ 80%) | A (0% ≤ substrate protein remaining % ≤ 80%) | B (80%< substrate protein remaining %≤ 100%) | A (0% ≤ substrate protein remaining % ≤ 80%) | B (80%< substrate protein remaining %≤ 100%)
Cc1nc(N2CCN(Cc3ccc4c(c3)C(=O)N(C3CCC(=O)NC3=O)C4=O)CC2)c2c3c(sc2n1)CCC3 (centres unmarked) [GT-06566, 2-(2,6-dioxopiperidin-3-yl)-5-((4-(2-methyl-6,7-dihydro-5H-cyclopenta[4,5]thieno[2,3-d]pyrimidin-4-yl)piperazin-1-yl)methyl)isoindoline-1,3-dione] | – | – | – | – | 500 to 1000 | – | – | A (0% ≤ substrate protein remaining % ≤ 80%) | A (0% ≤ substrate protein remaining % ≤ 80%) | A (0% ≤ substrate protein remaining % ≤ 80%) | A (0% ≤ substrate protein remaining % ≤ 80%) | A (0% ≤ substrate protein remaining % ≤ 80%) | A (0% ≤ substrate protein remaining % ≤ 80%)
O=C1CCC(N2Cc3cc(CN4CCN(c5cc(Cl)nnc5Cl)CC4)ccc3C2=O)C(=O)N1 (centres unmarked) [GT-04500, 3-(5-((4-(3,6-dichloropyridazin-4-yl)piperazin-1-yl)methyl)-1-oxoisoindolin-2-yl)piperidine-2,6-dione] | A (0% ≤ substrate protein remaining % ≤ 80%) | A (0% ≤ substrate protein remaining % ≤ 80%) | A (0% ≤ substrate protein remaining % ≤ 80%) | A (0% ≤ substrate protein remaining % ≤ 80%) | 500 to 1000 | A (0% ≤ substrate protein remaining % ≤ 80%) | A (0% ≤ substrate protein remaining % ≤ 80%) | – | – | – | – | – | –
O=C1CCC(N2Cc3cc(CN4CCN(c5ncnc6sc(-c7ccccc7)cc56)CC4)ccc3C2=O)C(=O)N1 (centres unmarked) [GT-04862, 3-(1-oxo-5-((4-(6-phenylthieno[2,3-d]pyrimidin-4-yl)piperazin-1-yl)methyl)isoindolin-2-yl)piperidine-2,6-dione] | A (0% ≤ substrate protein remaining % ≤ 80%) | A (0% ≤ substrate protein remaining % ≤ 80%) | A (0% ≤ substrate protein remaining % ≤ 80%) | A (0% ≤ substrate protein remaining % ≤ 80%) | < 500 | A (0% ≤ substrate protein remaining % ≤ 80%) | A (0% ≤ substrate protein remaining % ≤ 80%) | – | – | – | – | – | –
O=C1CCC(N2Cc3cc(CN4CCN(c5ncccc5F)CC4)ccc3C2=O)C(=O)N1 (centres unmarked) [GT-04578, 3-(5-((4-(3-fluoropyridin-2-yl)piperazin-1-yl)methyl)-1-oxoisoindolin-2-yl)piperidine-2,6-dione] | B (80%< substrate protein remaining %≤ 100%) | B (80%< substrate protein remaining %≤ 100%) | B (80%< substrate protein remaining %≤ 100%) | A (0% ≤ substrate protein remaining % ≤ 80%) | 1000 to 1500 | A (0% ≤ substrate protein remaining % ≤ 80%) | A (0% ≤ substrate protein remaining % ≤ 80%) | – | – | – | – | – | –
O=C1CCC(N2Cc3cc(CN4CCN(c5ccnc(Cl)c5Cl)CC4)ccc3C2=O)C(=O)N1 (centres unmarked) [GT-04542, 3-(5-((4-(2,3-dichloropyridin-4-yl)piperazin-1-yl)methyl)-1-oxoisoindolin-2-yl)piperidine-2,6-dione] | A (0% ≤ substrate protein remaining % ≤ 80%) | A (0% ≤ substrate protein remaining % ≤ 80%) | A (0% ≤ substrate protein remaining % ≤ 80%) | B (80%< substrate protein remaining %≤ 100%) | < 500 | A (0% ≤ substrate protein remaining % ≤ 80%) | A (0% ≤ substrate protein remaining % ≤ 80%) | – | – | – | – | – | –
O=C1CCC(N2Cc3cc(CN4CC=C(c5ncnc6scc(-c7ccccc7)c56)CC4)ccc3C2=O)C(=O)N1 (centres unmarked) [GT-04908, 3-(1-oxo-5-((4-(5-phenylthieno[2,3-d]pyrimidin-4-yl)-3,6-dihydropyridin-1(2H)-yl)methyl)isoindolin-2-yl)piperidine-2,6-dione] | A (0% ≤ substrate protein remaining % ≤ 80%) | A (0% ≤ substrate protein remaining % ≤ 80%) | A (0% ≤ substrate protein remaining % ≤ 80%) | B (80%< substrate protein remaining %≤ 100%) | < 500 | A (0% ≤ substrate protein remaining % ≤ 80%) | A (0% ≤ substrate protein remaining % ≤ 80%) | – | – | – | – | – | –
O=C1CCC(N2C(=O)c3ccc(CN4CCN(c5ccsc5)CC4)cc3C2=O)C(=O)N1 (centres unmarked) [GT-06215, 2-(2,6-dioxopiperidin-3-yl)-5-((4-(thiophen-3-yl)piperazin-1-yl)methyl)isoindoline-1,3-dione] | – | – | – | – | 500 to 1000 | – | – | A (0% ≤ substrate protein remaining % ≤ 80%) | B (80%< substrate protein remaining %≤ 100%) | A (0% ≤ substrate protein remaining % ≤ 80%) | A (0% ≤ substrate protein remaining % ≤ 80%) | B (80%< substrate protein remaining %≤ 100%) | B (80%< substrate protein remaining %≤ 100%)
